Patent publication US9827219B2, “Compositions and methods for lowering levels of high-sensitivity C-reactive protein (HS-CRP) in a subject” (priority 2012, dated 2017)

Legend:
Assay type in all cases: in vivo, human
TG = TG in patients with diabetes mellitus-2 (Example 2); conditions: 4 g/day, 12 weeks, on statin
Description: Parameters (a)-(y) can be measured in accordance with any clinically acceptable methodology. For example, triglycerides, total cholesterol, HDL-C and fasting blood sugar can be sample from serum and analyzed using standard photometry techniques. VLDL-TG, LDL-C and VLDL-C can be calculated or determined using serum lipoprotein fractionation by preparative ultracentrifugation and subsequent quantitative analysis by refractometry or by analytic ultracentrifugal methodology. Apo A1, Apo B and hsCRP can be determined from serum using standard nephelometry techniques. Lipoprotein (a) can be determined from serum using standard turbidimetric immunoassay techniques. LDL particle number and particle size can be determined using nuclear magnetic resonance (NMR) spectrometry. Remnants lipoproteins and LDL-phospholipase A2 can be determined from EDTA plasma or serum and serum, respectively, using enzymatic immunoseparation techniques. Oxidized LDL, intercellular adhesion molecule-1 and interleukin-2 levels can be determined from serum using standard enzyme immunoassay techniques. These techniques are described in detail in standard textbooks, for example Tietz Fundamentals of Clinical Chemistry, 6th Ed. […]
The effect of >96% E-EPA on lipid and inflammatory parameters was evaluated in patients with fasting triglyceride levels ≧150 mg/dl and <499 mg/dl on concomitant statin therapy. […]

[1] = test system: FPG, HbA1c, insulin and HOMA-IR; assay: Diabetes parameters (FPG, HbA1c, insulin, HOMA-IR) in patients with diabetes mellitus-2 (Example 2); conditions: 4 g/day
Description: (§1) The effect of >96% E-EPA on lipid and inflammatory parameters was evaluated in patients with fasting triglyceride levels ≧150 mg/dl and <499 mg/dl on concomitant statin therapy. Patients with diabetes mellitus-2 were randomized and treated with either 2 g/day >96% E-EPA, 4 g/day >96%, or placebo for twelve weeks. At the end of the treatment period, several diabetes efficacy endpoints were evaluated including, TG, LDL-C, non-HDL-C, VLDL-C, Lp-PLA2, Apo B, TC, HDL-C, VLDL-TG, hs-CRP, oxLDL, and RLP-C.

Non-HDL-C = Non-HDL-C in patients with diabetes mellitus-2 (Example 2); conditions: 4 g/day, 12 weeks, on statin
Description: as §1

hsCRP [2] = assay: hsCRP in patients with diabetes mellitus-2 (Example 2); conditions: 4 g/day, 12 weeks, on statin
Description: (§2) Parameters (a)-(y) can be measured in accordance with any clinically acceptable methodology. For example, triglycerides, total cholesterol, HDL-C and fasting blood sugar can be sample from serum and analyzed using standard photometry techniques. VLDL-TG, LDL-C and VLDL-C can be calculated or determined using serum lipoprotein fractionation by preparative ultracentrifugation and subsequent quantitative analysis by refractometry or by analytic ultracentrifugal methodology. Apo A1, Apo B and hsCRP can be determined from serum using standard nephelometry techniques. Lipoprotein (a) can be determined from serum using standard turbidimetric immunoassay techniques. LDL particle number and particle size can be determined using nuclear magnetic resonance (NMR) spectrometry. Remnants lipoproteins and LDL-phospholipase A2 can be determined from EDTA plasma or serum and serum, respectively, using enzymatic immunoseparation techniques. Oxidized LDL, intercellular adhesion molecule-1 and interleukin-2 levels can be determined from serum using standard enzyme immunoassay techniques. These techniques are described in detail in standard textbooks, for example Tietz Fundamentals of Clinical Chemistry, 6th Ed. (Burtis, Ashwood and Borter Eds.), WB Saunders Company.
as §1

hsCRP [3] = assay: ANCHOR study, hsCRP (also by statin type and statin efficacy regimen)
Description: as §2
A multi-center, placebo-controlled, randomized, double-blind, 12-week study was performed to evaluate the efficacy and safety of >96% E-EPA in patients with fasting triglyceride levels ≧200 mg/dl and <500 mg/dl despite statin therapy (the mean of two qualifying entry values needed to be ≧185 mg/dl and at least one of the values needs to be ≧200 mg/dl). The primary objective of the study was to determine the efficacy of >96% E-EPA 2 g daily and 4 g daily, compared to placebo, in lowering fasting TG levels in patients with high risk for cardiovascular disease and with fasting TG levels ≧200 mg/dL and <500 mg/dL, despite treatment to LDL-C goal on statin therapy.
The population for this study was men and women >18 years of age with a body mass index ≦45 kg/m^2 with fasting TG levels greater than or equal to 200 mg/dl and less than 500 mg/dl and on a stable does of statin therapy (with or without ezetimibe). The statin must have been atorvostatin, rosuvastatin or simvastatin. The dose of statin must have been stable for ≧4 weeks prior to the LDL-C/TG baseline qualifying measurement for randomization. The statin dose was optimal such that the patients are at their LDL-C goal at the LDL-C/TG baseline qualifying measurements. The same statin at the same dose was continued until the study ended.
Approximately 648 patients were randomized at approximately 80 centers in the U.S. The study was a 18- to 20-week, Phase 3, multi-center study consisting of 2 study periods: (1) A 6- to 8-week screening period that included a diet and lifestyle stabilization, a non-statin lipid-altering treatment washout, and an LDL-C and TG qualifying period and (2) A 12-week, double-blind, randomized, placebo-controlled treatment period.
After confirmation of qualifying fasting LDL-C and TG values, eligible patients entered a 12-week, randomized, double-blind treatment period. At Visit 4 (Week 0), patients were randomly assigned to 1 of the following treatment groups: • >96% E-EPA 2 g daily, • >96% E-EPA 4 g daily, or • Placebo.
Approximately 216 patients per treatment group were randomized in this study. Stratification was by type of statin (atorvastatin, rosuvastatin or simvastatin), the presence of diabetes, and gender. […]

[4] = well-controlled diabetes (HbA1c < median of 6.8%)
[5] = less-controlled diabetes (HbA1c ≧ median of 6.8%)

## CC/C=C\C/C=C\C/C=C\C/C=C\C/C=C\CCCC(=O)OCC [AMR101, all-cis eicosa-5,8,11,14,17-pentaenoic acid ethyl ester]
TG; total diabetes
  Median placebo-adjusted percent change in TG from baseline to study end: −23.2%
TG; [4]
  Median placebo-adjusted percent change in TG from baseline to study end: −21.0%
[1]; twelve weeks
  Glycemic control: did not worsen glycemic control
[1]; well-controlled, less-controlled and all diabetic subjects, FIG. 4
  Changes in diabetes parameters including FPG, HbA1c, insulin and HOMA-IR: no statistically significant changes
Non-HDL-C; [5]
  Median placebo-adjusted percent change in Non-HDL-C from baseline to study end: −18.0%
Non-HDL-C; total diabetes
  Median placebo-adjusted percent change in Non-HDL-C from baseline to study end: −14.4%
Non-HDL-C; [4]
  Median placebo-adjusted percent change in Non-HDL-C from baseline to study end: −11.3%
hsCRP [2]; [5]
  Median placebo-adjusted percent change in hsCRP from baseline to study end: −34.6%
hsCRP [2]; total diabetes
  Median placebo-adjusted percent change in hsCRP from baseline to study end: −21.5%
hsCRP [2]; [4]
  Median placebo-adjusted percent change in hsCRP from baseline to study end: −4.0%
hsCRP [3]; ANCHOR ITT, 2 g/day, week 12
  hsCRP end-of-treatment value, median: 2.5 mg/L
hsCRP [3]; ANCHOR ITT, 4 g/day, week 12
  hsCRP change from baseline (median): −2.4%
  hsCRP end-of-treatment value, median: 2.0 mg/L
hsCRP [3]; ANCHOR, atorvastatin, AMR101 2 g/day vs placebo, P 0.6563
  hsCRP median placebo-adjusted % change from baseline: −9.3%
hsCRP [3]; ANCHOR, atorvastatin, AMR101 2 g/day, week 12
  hsCRP change from baseline, median %: 20.1%
hsCRP [3]; ANCHOR, atorvastatin, AMR101 2 g/day, week 12, baseline 1.7
  hsCRP end-of-treatment value, median: 2.3 mg/L
hsCRP [3]; ANCHOR, atorvastatin, AMR101 4 g/day vs placebo, P 0.0475
  hsCRP median placebo-adjusted % change from baseline: −36.7%
hsCRP [3]; ANCHOR, atorvastatin, AMR101 4 g/day, week 12
  hsCRP change from baseline, median %: −11.7%
hsCRP [3]; ANCHOR, atorvastatin, AMR101 4 g/day, week 12, baseline 2.1
  hsCRP end-of-treatment value, median: 1.5 mg/L
hsCRP [3]; ANCHOR, higher-efficacy statin regimen, AMR101 2 g/day vs placebo, P 0.5227
  hsCRP median placebo-adjusted % change from baseline: −8.3%
hsCRP [3]; ANCHOR, higher-efficacy statin regimen, AMR101 2 g/day, week 12
  hsCRP change from baseline, median %: 16.7%
hsCRP [3]; ANCHOR, higher-efficacy statin regimen, AMR101 2 g/day, week 12, baseline 1.7
  hsCRP end-of-treatment value, median: 2.2 mg/L
hsCRP [3]; ANCHOR, higher-efficacy statin regimen, AMR101 4 g/day vs placebo, P 0.0210
  hsCRP median placebo-adjusted % change from baseline: −28.6%
hsCRP [3]; ANCHOR, higher-efficacy statin regimen, AMR101 4 g/day, week 12
  hsCRP change from baseline, median %: 0.0%
hsCRP [3]; ANCHOR, higher-efficacy statin regimen, AMR101 4 g/day, week 12, baseline 2.5
  hsCRP end-of-treatment value, median: 2.0 mg/L
hsCRP [3]; ANCHOR, lower-efficacy statin regimen, AMR101 2 g/day, week 12
  hsCRP change from baseline, median %: 13.3%
hsCRP [3]; ANCHOR, lower-efficacy statin regimen, AMR101 2 g/day, week 12, baseline 1.5
  hsCRP end-of-treatment value, median: 1.7 mg/L
hsCRP [3]; ANCHOR, lower-efficacy statin regimen, AMR101 4 g/day vs placebo, P 0.8843
  hsCRP median placebo-adjusted % change from baseline: 4.0%
hsCRP [3]; ANCHOR, lower-efficacy statin regimen, AMR101 4 g/day, week 12
  hsCRP change from baseline, median %: 11.9%
hsCRP [3]; ANCHOR, lower-efficacy statin regimen, AMR101 4 g/day, week 12, baseline 2.1
  hsCRP end-of-treatment value, median: 2.4 mg/L
hsCRP [3]; ANCHOR, medium-efficacy statin regimen, AMR101 2 g/day vs placebo, P 0.2839
  hsCRP median placebo-adjusted % change from baseline: −8.3%
hsCRP [3]; ANCHOR, medium-efficacy statin regimen, AMR101 2 g/day, week 12
  hsCRP change from baseline, median %: 8.7%
hsCRP [3]; ANCHOR, medium-efficacy statin regimen, AMR101 2 g/day, week 12, baseline 2.3
  hsCRP end-of-treatment value, median: 2.6 mg/L
hsCRP [3]; ANCHOR, medium-efficacy statin regimen, AMR101 4 g/day vs placebo, P 0.0034
  hsCRP median placebo-adjusted % change from baseline: −22.8%
hsCRP [3]; ANCHOR, medium-efficacy statin regimen, AMR101 4 g/day, week 12
  hsCRP change from baseline, median %: −7.7%
hsCRP [3]; ANCHOR, medium-efficacy statin regimen, AMR101 4 g/day, week 12, baseline 2.2
  hsCRP end-of-treatment value, median: 1.8 mg/L
hsCRP [3]; ANCHOR, rosuvastatin, AMR101 2 g/day vs placebo, P 0.3922
  hsCRP median placebo-adjusted % change from baseline: −11.0%
hsCRP [3]; ANCHOR, rosuvastatin, AMR101 2 g/day, week 12
  hsCRP change from baseline, median %: 0.0%
hsCRP [3]; ANCHOR, rosuvastatin, AMR101 2 g/day, week 12, baseline 1.6
  hsCRP end-of-treatment value, median: 2.0 mg/L
hsCRP [3]; ANCHOR, rosuvastatin, AMR101 4 g/day vs placebo, P 0.0217
  hsCRP median placebo-adjusted % change from baseline: −31.4%
hsCRP [3]; ANCHOR, rosuvastatin, AMR101 4 g/day, week 12
  hsCRP change from baseline, median %: −1.2%
hsCRP [3]; ANCHOR, rosuvastatin, AMR101 4 g/day, week 12, baseline 2.6
  hsCRP end-of-treatment value, median: 1.9 mg/L
hsCRP [3]; ANCHOR, simvastatin, AMR101 2 g/day vs placebo, P 0.6562
  hsCRP median placebo-adjusted % change from baseline: −3.8%
hsCRP [3]; ANCHOR, simvastatin, AMR101 2 g/day, week 12
  hsCRP change from baseline, median %: 11.0%
hsCRP [3]; ANCHOR, simvastatin, AMR101 2 g/day, week 12, baseline 2.2
  hsCRP end-of-treatment value, median: 2.7 mg/L
hsCRP [3]; ANCHOR, simvastatin, AMR101 4 g/day vs placebo, P 0.0755
  hsCRP median placebo-adjusted % change from baseline: −13.6%
hsCRP [3]; ANCHOR, simvastatin, AMR101 4 g/day, week 12
  hsCRP change from baseline, median %: 0.0%
hsCRP [3]; ANCHOR, simvastatin, AMR101 4 g/day, week 12, baseline 2.2
  hsCRP end-of-treatment value, median: 2.2 mg/L
hsCRP [3]; ANCHOR, 2 g/day, concomitant atorvastatin
  hsCRP median placebo-adjusted change from baseline: statistically insignificant
hsCRP [3]; ANCHOR, 2 g/day, concomitant rosuvastatin
  hsCRP median placebo-adjusted change from baseline: statistically insignificant
hsCRP [3]; ANCHOR, 2 g/day, concomitant simvastatin
  hsCRP median placebo-adjusted change from baseline: statistically insignificant
hsCRP [3]; ANCHOR, 2 g/day, high-efficacy statin therapy
  hsCRP median placebo-adjusted change from baseline: statistically insignificant
hsCRP [3]; ANCHOR, 2 g/day, low-efficacy statin therapy
  hsCRP median placebo-adjusted change from baseline: statistically insignificant
hsCRP [3]; ANCHOR, 2 g/day, medium-efficacy statin therapy
  hsCRP median placebo-adjusted change from baseline: statistically insignificant
hsCRP [3]; ANCHOR, 4 g/day, concomitant atorvastatin
  hsCRP median placebo-adjusted change from baseline: −36.7%
hsCRP [3]; ANCHOR, 4 g/day, concomitant rosuvastatin
  hsCRP median placebo-adjusted change from baseline: −31.4%
hsCRP [3]; ANCHOR, 4 g/day, concomitant simvastatin
  hsCRP median placebo-adjusted change from baseline: statistically insignificant
hsCRP [3]; ANCHOR, 4 g/day, high-efficacy statin therapy
  hsCRP median placebo-adjusted change from baseline: −28.6%
hsCRP [3]; ANCHOR, 4 g/day, low-efficacy statin therapy (e.g., simvastatin 5-10 mg/day)
  hsCRP median placebo-adjusted change from baseline: statistically insignificant
